Assay results taken from patent publication EP4722228A1, “NEW COMPOUND TARGETING MUSK AND USE THEREOF” (The University of Tokyo, priority 2023, dated 2024).
pKd: −log10 of the molar value. Numbered stars: 1 amine (or outer) side, 2 acyl side, 3 side chain; on linkers, the order of the positions; unused ones are H or OH. Bridge positions count the residues as written; N and C are the ends. Square brackets hold non-standard residues; d marks the D form. Peptide text beside a SMILES is read from it. I, II: the chains in the order shown. X1 = O=C(CCN1C(=O)CC([*:1])C1=O)NCCOCCOCCOCCOCCOCCOCCOCCOCCOCCOCCOCCNC(=O)CCN1C(=O)CC([*:2])C1=O; X2 = O=C(CCN1C(=O)CC([*:1])C1=O)NCCCOCCOCCOCCCNC(=O)CCN1C(=O)CC([*:2])C1=O

Columns and labels:
[1] = test system: C2C12 myotubes (Agrin-induced AChR clusters); test: Agrin-induced AChR clusters in myotubes with tyrosine kinase inhibitors; type: cell-based, mouse; conditions: 10 pM recombinant rat agrin, inhibitor (3 nM) added simultaneously, 20 hours; for MuSK inhibitory effects: presumed
Text: The mouse myoblast-derived cell line C2C12 (CRL-1772) was purchased from the American Type Culture Collection and used. For subculture, Dulbecco's Modified Eagle Medium (DMEM, high glucose, GlutaMAX supplement, pyruvate; GIBCO) supplemented with 20% fetal bovine serum (FBS; GIBCO) was used. For passage, after the culture medium was removed by suction, adherent cells were washed with phosphate buffered saline (PBS(-)), and HBSS (GIBCO) containing no Mg^2+ and Ca^2+ and containing 0.25% trypsin and 1 mM ethylenediaminetetraacetic acid was added, and the mixture was reacted in a CO2 incubator (37°C, 5% CO2) for 5 minutes. The detached cells were collected and then centrifuged at 1000 rpm at 4°C for 5 minutes (Sorvall X4R Pro, Thermo Fisher Scientific Inc.). After the supernatant was removed by suction, the cells were suspended in fresh culture medium, and 100 µL was seeded into a 96-well plate (BioCoat Collagen I 96-well Black/Clear plate, Corning Inc.) and cultured in a CO2 incubator (37°C, 5% CO2) until reaching confluence, typically within 72 hours. Subsequently, the culture medium was removed and the first medium change was performed with DMEM containing 2% horse serum (GIBCO) for induction of myotube cell differentiation.
A differentiation medium supplemented with an appropriate amount of the homodimer of the cyclic peptide MuSK7 (MuSK7 PEG11 dimer) was prepared in advance in a 96-well plate (Nunclon Δ Surface, 167008, Nunc), and used at 100 µL/well at the time of the second medium change in the process of inducing differentiation into myotubes. 20 hours after addition of the homodimer of the cyclic peptide MuSK7, the medium was removed, the cells were washed with PBS(-), and then fixed at room temperature for 15 minutes with PBS(-) containing 4% formaldehyde. After washing several times with 1% BSA-PBS(-), fluorescently labeled α-bungarotoxin (α-Btx, Alexa Fluor 488 conjugate; Invitrogen) was added to 1% BSA-PBS(-) at a final concentration of 100 nM, and after adding this to the wells, the mixture was allowed to stand at room temperature under a light-shielded condition for 30 minutes. After washing the cells several times with 1% BSA-PBS(-), 100 µL of PBS(-) was added to each well, and fluorescence observation was performed using a fluorescence imaging device. For observation of fluorescently labeled AChR clusters, an EVOS M7000 imaging system (Thermo Fisher Scientific Inc.) was used. During fluorescence image observation, a 10× objective lens was used, and tiff images of an area equivalent to 1 mm^2 were obtained. […] The average number of AChR clusters counted from the three tiff images derived from the same well was calculated and drawn on a graph.
MuSK inhibitor candidates were searched in the KinaseNET database (http://www.kinasenet.ca/) published as an open resource by Kinexus Bioinformatics Corporation (Canada), and three tyrosine kinase inhibitors (AST-487, Foretinib, and Sorafenib) were identified. Next, groups were prepared in which 10 pM recombinant rat agrin protein (550-AG, R&D Systems) derived from C2C12 myotubes was added alone, or in which each tyrosine kinase inhibitor (3 nM) was added simultaneously, and detection and observation of Agrin-induced AChR clusters were performed 20 hours after compound addition (five types, Crizotinib, Linifanib, AST-1306, Dovitinib, and BMS-754807, were used as non-MuSK inhibitory tyrosine kinase inhibitors).

[2] = biological target: T1, human MuSK (Homo sapiens, UniProt O15146); test: SPR binding activity test to human MuSK (Biacore); conditions: human MuSK, peptide homodimers
T1 construct: DNA corresponding to the extracellular portion (amino acids 1-493) was amplified by a PCR method; made in house; host or cells: Expi293F cells
T1 sequence (O15146 24-493): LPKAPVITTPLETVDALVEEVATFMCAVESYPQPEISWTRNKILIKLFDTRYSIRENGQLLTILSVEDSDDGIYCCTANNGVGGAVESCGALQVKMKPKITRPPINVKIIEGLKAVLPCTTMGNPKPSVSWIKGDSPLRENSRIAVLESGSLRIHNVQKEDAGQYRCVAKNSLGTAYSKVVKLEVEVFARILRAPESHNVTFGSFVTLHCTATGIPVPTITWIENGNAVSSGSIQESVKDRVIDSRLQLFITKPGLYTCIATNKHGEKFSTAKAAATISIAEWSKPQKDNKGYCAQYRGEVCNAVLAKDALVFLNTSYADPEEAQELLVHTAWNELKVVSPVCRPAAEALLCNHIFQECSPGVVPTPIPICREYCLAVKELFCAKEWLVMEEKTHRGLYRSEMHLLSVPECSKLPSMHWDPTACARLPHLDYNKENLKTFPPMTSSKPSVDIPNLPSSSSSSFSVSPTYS
Procedure: The human MuSK protein (extracellular portion) was prepared as a recombinant protein as follows. Using a Flexi clone (FXC31275, Promega Corporation) encoding Human MuSK isoform 1 precursor (NCBI Reference Sequence: NP_005583.1) as a template, DNA corresponding to the extracellular portion (amino acids 1-493) was amplified by a PCR method. XhoI and EcoRI restriction enzyme recognition sequences were added to both the 5' and 3' ends of the amplified DNA sequence, and these were used for insertion into the multiple cloning site of a pCAG-Neo hIgG1-Fc plasmid (Fujifilm Wako Pure Chemical Corporation). This plasmid (pCAG-Neo hMuSK-Fc) enables expression of a chimeric protein of the secretory human MuSK extracellular portion and human IgG1 Fc (hMuSK-Fc; molecular weight of approximately 200 kDa) in animal cells. In practice, ExpiFectamine 293 reagent (Invitrogen) was used to transfect the pCAG-Neo hMuSK-Fc plasmid into Expi293F cells (Invitrogen), and shaking culture was carried out (for 6 days) in an incubator containing 8% CO2. Next, the culture supernatant was collected, centrifuged, and sterilized by filtration through a 0.22 µm filter. The obtained culture supernatant was subjected to Protein G purification, and finally, a purified hMuSK-Fc sample with 99.96% purity (AKTA-FPLC analysis) was obtained.
The strength of binding between MuSK and the cyclic peptides was evaluated by quantitatively measuring the binding kinetics (binding affinity (dissociation constant) KD) of the cyclic peptides to MuSK immobilized on a sensor chip via an Fc tag, using surface plasmon resonance (SPR).
According to the standard immobilization protocol provided by the manufacturer, Fc-tagged human/mouse/rat MuSK was immobilized on a Protein G chip or a Protein A chip (Cytiva). A running buffer for the monomer/dimer peptides contained 0.010 M phosphate, 0.14 M NaCl, 0.0027 M KCl, 0.05% (v/v) Tween 20, and 0.1% (v/v) DMSO. A running buffer for the monomer/dimer U-bodies contained 0.010 M phosphate, 0.14 M NaCl, 0.0027 M KCl, and 0.05% (v/v) Tween 20. A series of concentrations of each monomer peptide, dimer peptide, monomer U-body, and dimer U-body was injected as analytes. A 1:1 binding fitting analysis was applied using Biacore evaluation software, and ka, kd, and KD values were determined.
Fc-tagged human MuSK was prepared according to the procedure described in Example 1(1). In addition, Fc-tagged mouse MuSK was used by expressing a nucleotide sequence encoding the Fc-tagged mouse MuSK extracellular domain (SEQ ID NO: 34). In addition, Fc-tagged rat MuSK was used as a chimeric protein of rat MuSK and an Fc protein, namely, Recombinant Rat MuSK Fc Chimera Protein (catalog number: 9847-MK-050, R&D Systems).
The affinity of the U-bodies and their complexes obtained as described above for MuSK of human, rat, and mouse was evaluated (binding activity test). The test was carried out according to the procedure described in Example 1(3). However, for the complexes of U-bodies, surface plasmon resonance (SPR) analysis was carried out using a Biacore 8K (Cytiva).

Which “number of AChR clusters” value [1] does the source give for `C=CC(=O)Nc1ccc2ncnc(Nc3ccc(OCc4cccc(F)c4)c(Cl)c3)c2c1` [AST-1306] here?
Its value is “comparable to that in the negative control group (DMSO alone)”.

With `COc1cc2c(Oc3ccc(NC(=O)C4(C(=O)Nc5ccc(F)cc5)CC4)cc3F)ccnc2cc1OCCCN1CCOCC1` [Foretinib] as the compound, how does the MuSK inhibitory effects [1] read?
Its MuSK inhibitory effects is “weaker MuSK inhibitory effects compared with AST-487”.

Which “number of AChR clusters” value [1] does the source give for `C[C@@H](Oc1cc(-c2cnn(C3CCNCC3)c2)cnc1N)c1c(Cl)ccc(F)c1Cl` [Crizotinib] here?
Its value is “comparable to that in the negative control group (DMSO alone)”.

How did the MuSK inhibitory effects [1] turn out when `CNC(=O)c1cc(Oc2ccc(NC(=O)Nc3ccc(Cl)c(C(F)(F)F)c3)cc2)ccn1` [Sorafenib] was run?
The MuSK inhibitory effects was “weaker MuSK inhibitory effects compared with AST-487”.

`CC[C@H](C)[C@@H]1NC(=O)[C@H](CC(N)=O)NC(=O)[C@H](C(C)C)NC(=O)[C@H](Cc2ccc(O)cc2)NC(=O)CNC(=O)[C@@H]2CCCN2C(=O)[C@H](CCC(N)=O)NC(=O)[C@H](CC(C)C)NC(=O)[C@H](Cc2ccc(O)cc2)NC(=O)[C@H](Cc2c[nH]c3ccccc23)NC(=O)[C@@H](Cc2ccc(O)cc2)NC(=O)CSC[C@@H](C(=O)N[C@@H](CSC2CC(=O)N(CCC(=O)NCCOCCOCCOCCOCCOCCOCCOCCOCCOCCOCCOCCNC(=O)CCN3C(=O)CC(SC[C@H](NC(=O)[C@@H]4CSCC(=O)N[C@H](Cc5ccc(O)cc5)C(=O)N[C@@H](Cc5c[nH]c6ccccc56)C(=O)N[C@@H](Cc5ccc(O)cc5)C(=O)N[C@@H](CC(C)C)C(=O)N[C@@H](CCC(N)=O)C(=O)N5CCC[C@H]5C(=O)NCC(=O)N[C@@H](Cc5ccc(O)cc5)C(=O)N[C@@H](C(C)C)C(=O)N[C@@H](CC(N)=O)C(=O)N[C@@H]([C@@H](C)CC)C(=O)N[C@@H](C(C)C)C(=O)N[C@@H]([C@@H](C)O)C(=O)N[C@@H](CO)C(=O)N[C@@H](Cc5ccc(O)cc5)C(=O)N[C@@H](Cc5c[nH]cn5)C(=O)N4)C(N)=O)C3=O)C2=O)C(N)=O)NC(=O)[C@H](Cc2c[nH]cn2)NC(=O)[C@H](Cc2ccc(O)cc2)NC(=O)[C@H](CO)NC(=O)[C@H]([C@@H](C)O)NC(=O)[C@H](C(C)C)NC1=O` (stereo partly shown) [MuSK9 PEG11 dimer] (I: {CH2CO}-[dY]WYLQPGYVNIVTSYHCC-NH2 / II: {CH2CO}-[dY]WYLQPGYVNIVTSYHCC-NH2; linker I:18-II:18 via X1; thioether I:N-I:17, II:N-II:17) was tested. Which koff [2] did it give?
The koff was 0.0017 s⁻¹.

What about the kon [2] of the same compound?
The kon was 440000 M⁻¹ s⁻¹.

What about the pKd ([2]; read-out: Kd) of the same compound?
The pKd was 8.41.

Which koff [2] does the source give for `CC(C)C[C@@H]1NC(=O)[C@H](CO)NC(=O)[C@H](C)NC(=O)[C@H](C(C)C)NC(=O)[C@H](C(C)C)NC(=O)[C@H](CC(N)=O)NC(=O)[C@H]([C@@H](C)O)NC(=O)[C@H](Cc2c[nH]cn2)NC(=O)[C@H](Cc2ccc(O)cc2)NC(=O)[C@H](CO)NC(=O)[C@@H]2CCCN2C(=O)[C@@H](Cc2ccc(O)cc2)NC(=O)CSC[C@@H](C(=O)N[C@@H](CSC2CC(=O)N(CCC(=O)NCCCOCCOCCOCCCNC(=O)CCN3C(=O)CC(SC[C@H](NC(=O)[C@@H]4CSCC(=O)N[C@H](Cc5ccc(O)cc5)C(=O)N5CCC[C@H]5C(=O)N[C@@H](CO)C(=O)N[C@@H](Cc5ccc(O)cc5)C(=O)N[C@@H](Cc5c[nH]cn5)C(=O)N[C@@H]([C@@H](C)O)C(=O)N[C@@H](CC(N)=O)C(=O)N[C@@H](C(C)C)C(=O)N[C@@H](C(C)C)C(=O)N[C@@H](C)C(=O)N[C@@H](CO)C(=O)N[C@@H](CC(C)C)C(=O)N[C@@H](CCCCN)C(=O)N[C@@H](CCCNC(=N)N)C(=O)N4)C(N)=O)C3=O)C2=O)C(N)=O)NC(=O)[C@H](CCCNC(=N)N)NC(=O)[C@H](CCCCN)NC1=O` (stereo partly shown) [MuSK7 PEG3 dimer] (I: {CH2CO}-[dY]PSYHTNVVASLKRCC-NH2 / II: {CH2CO}-[dY]PSYHTNVVASLKRCC-NH2; linker I:16-II:16 via X2; thioether I:N-I:15, II:N-II:15) here?
The koff was 0.00034 s⁻¹.

And the kon [2]?
The kon was 540000 M⁻¹ s⁻¹.

Which “number of AChR clusters” value [1] does the source give for `C[C@@]1(C(=O)Nc2ccc(F)nc2)CCCN1c1nc(Nc2cc(C3CC3)n[nH]2)c2cccn2n1` [BMS-754807] here?
Its value is “comparable to that in the negative control group (DMSO alone)”.
